# In the supplement of paper PMC10307832:
# How the values were obtained:
# Experiment in all cases: relative viability (nuclei count vs DMSO), 5 days (fraction); higher = more cells survive
# [1] = compound: Cc1ccc(-n2nc(C(C)(C)C)cc2NC(=O)Nc2ccc(OCCN3CCOCC3)c3ccccc23)cc1 [Doramapimod] + COc1cc2c(Oc3ccc(NC(=O)C4(C(=O)Nc5ccc(F)cc5)CC4)cc3F)ccnc2cc1OCCCN1CCOCC1 [Foretinib] (partner 0.25 µM)
# Method in brief: (§1)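 Medians of duplicate plates are given as relative viability. That measure is the nuclei count in treated wells divided by the count in vehicle wells. Counts were taken on 4× images of lung cancer cell lines in 1536-well plates, 5 days after pin-tool dosing the day after seeding with one drug alone or a fixed anchor-drug dose plus five library-drug doses (not always all listed) in √10 steps.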
# [2] = compound: C1=CC=C2C(=C1)C=CC(=C2SSC3=C(C=CC4=CC=CC=C43)O)O [IPA-3] + CCNC(=O)c1noc(-c2cc(C(C)C)c(O)cc2O)c1-c1ccc(CN2CCOCC2)cc1 [Luminespib] (partner 0.01 µM)
# Method in brief: as §1
# [3] = compound: Cn1c(Nc2ccc(C(F)(F)F)cc2)nc2cc(Oc3ccnc(-c4ncc(C(F)(F)F)[nH]4)c3)ccc21 [RAF265] + COc1cccc2cc(-c3nc([C@H]4CC[C@H](C(=O)O)CC4)n4ncnc(N)c34)[nH]c12 [OSI-027] (partner 0.5 µM)
# Method in brief: as §1
# [4] = compound: C1=CC=C2C(=C1)C=CC(=C2SSC3=C(C=CC4=CC=CC=C43)O)O [IPA-3] + Nc1nc2[nH]cc(CCc3ccc(C(=O)N[C@@H](CCC(=O)O)C(=O)O)cc3)c2c(=O)[nH]1 [Pemetrexed] (partner 0.2 µM)
# Method in brief: as §1
Cell Line,relative viability ([1]; first compound 0.02 µM),relative viability ([1]; first compound 0.06325 µM),relative viability ([1]; first compound 0.2 µM),relative viability ([1]; first compound 0.6325 µM),relative viability ([1]; first compound 2 µM),relative viability ([2]; first compound 0.2 µM),relative viability ([2]; first compound 0.6325 µM),relative viability ([2]; first compound 2 µM),relative viability ([2]; first compound 6.325 µM),relative viability ([2]; first compound 20 µM),relative viability ([3]; first compound 0.01 µM),relative viability ([3]; first compound 0.03162 µM),relative viability ([3]; first compound 0.1 µM),relative viability ([3]; first compound 0.3162 µM),relative viability ([3]; first compound 1 µM),relative viability ([4]; first compound 0.2 µM),relative viability ([4]; first compound 0.6325 µM),relative viability ([4]; first compound 2 µM),relative viability ([4]; first compound 6.325 µM),relative viability ([4]; first compound 20 µM)
SW 1573,0.862,0.769,0.749,0.836,0.663,0.139,0.215,0.459,0.158,0.0643,0.697,0.521,0.418,0.347,0.249,0.964,0.87,0.921,0.906,0.162
PC-3 [JPC-3],1.14,1.11,1.15,1.23,1.1,0.742,0.666,0.719,0.641,0.801,0.84,0.655,0.746,,0.567,1.12,1.23,1.18,1.03,1.03
LOU-NH91,1.01,0.938,1.02,1.07,0.681,0.326,0.26,0.332,0.33,0.358,0.703,0.653,0.737,0.45,0.486,0.382,0.377,0.465,0.387,0.411
PC-14,0.939,1.03,0.997,1.13,0.91,0.165,0.151,0.189,0.161,0.142,0.813,0.734,0.787,,0.48,0.123,0.132,0.135,0.124,0.132
NCI-H2087,0.996,1.14,0.993,1.18,1.24,0.169,0.14,0.183,0.197,0.167,0.653,0.426,0.426,0.193,0.334,0.698,0.642,0.645,0.678,0.608
SW 900,0.557,0.933,0.877,1.11,0.892,0.211,0.184,0.165,0.181,0.212,0.569,0.661,0.464,0.378,0.391,0.544,0.456,0.472,0.441,0.527
LU99A,0.791,0.781,0.914,0.801,0.724,0.295,0.179,0.292,0.206,0.214,0.299,0.274,0.27,0.258,0.205,0.188,0.189,0.143,0.187,0.175
BEN,0.663,0.639,0.603,0.469,0.676,0.387,0.439,0.386,0.576,0.472,0.261,0.29,0.312,0.311,0.293,0.751,0.843,0.852,0.814,0.774
SK-LU-1,0.805,0.82,0.847,0.873,0.759,0.207,0.17,0.225,0.161,0.228,0.349,0.254,0.224,0.232,0.193,1.16,0.938,1.01,0.926,1.14
NCI-H1975,0.961,0.965,0.952,0.988,0.924,0.236,0.189,0.213,0.19,0.365,0.682,0.601,0.348,0.261,0.178,0.318,0.288,0.305,0.347,0.274
NCI-H2342,0.91,1.03,0.975,1.29,1.13,0.701,0.677,0.747,0.802,0.765,0.598,0.722,0.598,0.525,0.514,0.868,0.761,0.841,0.823,0.924
RERF-LC-KJ,0.87,0.955,0.884,0.9,0.869,1.46,1.27,1.29,1.39,1.14,0.548,0.52,0.423,0.349,0.381,0.487,0.46,0.482,0.489,0.566
NCI-H441,1.02,0.654,0.909,,0.842,0.401,0.29,0.407,0.324,0.422,0.612,0.591,0.454,0.346,0.351,0.258,0.262,0.27,0.236,0.236
LCLC-103H,0.627,0.691,0.598,0.857,0.73,1.09,1,0.916,0.929,0.926,0.466,0.439,0.464,0.443,0.308,0.474,0.463,0.461,0.504,0.476
NCI-H1915,1.02,1.13,1.18,1.12,0.995,0.968,0.534,0.775,0.713,0.926,0.674,0.492,0.339,0.217,0.176,0.559,0.463,0.497,0.461,0.633
